Holding throughout (type): cell-based
The target of one experiment is T1, M1 muscarinic receptor (Homo sapiens, UniProt P11229).
T1 construct: expressed in transfected cells; host or cells: CHO (M1-CHO)
T1 sequence (P11229 1-460): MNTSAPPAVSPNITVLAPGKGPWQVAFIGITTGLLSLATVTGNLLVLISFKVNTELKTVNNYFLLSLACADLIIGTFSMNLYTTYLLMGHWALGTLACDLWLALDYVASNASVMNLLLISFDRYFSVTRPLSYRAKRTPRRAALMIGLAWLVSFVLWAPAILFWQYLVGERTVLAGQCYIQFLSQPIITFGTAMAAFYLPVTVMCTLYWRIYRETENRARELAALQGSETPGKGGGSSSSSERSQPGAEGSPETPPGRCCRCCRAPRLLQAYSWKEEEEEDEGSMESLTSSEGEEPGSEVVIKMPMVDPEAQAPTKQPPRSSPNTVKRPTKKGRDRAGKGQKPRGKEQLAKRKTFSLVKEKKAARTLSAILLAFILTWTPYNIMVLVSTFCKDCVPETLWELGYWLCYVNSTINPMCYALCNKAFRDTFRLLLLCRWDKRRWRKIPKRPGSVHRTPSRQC
Put plainly: Functional mobilization of intracellular calcium (FLIPR), M1-CHO cells. Particulars: for Emax: 100% efficacy = maximum response obtained with the Carbachol control; for M1 Activity: M1-CHO cells, calcium mobilization (FLIPR). Put shortly: (§1)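 Calcium mobilisation read by FLIPR over 60 s (ex 488/em 540 nm) in recombinant muscarinic CHO lines loaded with calcium dye plus 1 mM probenecid. Compounds tested as agonists alone, or as inhibitors against EC80 carbachol after 15 min pre-incubation or co-addition; 0.5% DMSO; efficacy scaled to carbachol maximal response.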
A general note: Calcium assays in cells follow changes in intracellular calcium, usually with a dye or a luminescent sensor.

A further experiment deals with T2, M2 muscarinic receptor (Homo sapiens, UniProt P08172).
T2 construct: expressed in transfected cells; host or cells: CHO (M2-CHO)
T2 sequence (P08172 1-466): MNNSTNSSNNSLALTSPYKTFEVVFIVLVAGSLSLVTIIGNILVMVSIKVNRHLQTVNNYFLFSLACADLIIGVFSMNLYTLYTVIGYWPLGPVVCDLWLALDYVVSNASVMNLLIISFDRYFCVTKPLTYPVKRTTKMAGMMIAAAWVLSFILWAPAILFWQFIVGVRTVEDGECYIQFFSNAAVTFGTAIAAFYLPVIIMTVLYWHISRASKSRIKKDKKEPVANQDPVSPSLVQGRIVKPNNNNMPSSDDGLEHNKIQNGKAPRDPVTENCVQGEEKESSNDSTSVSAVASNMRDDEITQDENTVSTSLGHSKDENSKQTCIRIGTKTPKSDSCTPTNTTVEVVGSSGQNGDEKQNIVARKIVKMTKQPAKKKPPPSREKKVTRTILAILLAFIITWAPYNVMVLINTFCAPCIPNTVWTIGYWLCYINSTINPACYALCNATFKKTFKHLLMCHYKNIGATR
As to the kind of experiment: Functional mobilization of intracellular calcium (FLIPR), M2-CHO cells. Particulars: for Emax: 100% efficacy = maximum response obtained with the Carbachol control; for M2 Activity: M2-CHO cells, calcium mobilization (FLIPR). In short, it runs like this: as §1

For another experiment, the target named is T3, M3 muscarinic receptor (Homo sapiens, UniProt P20309).
T3 construct: expressed in transfected cells; host or cells: CHO (M3-CHO)
As to the kind of experiment: Functional mobilization of intracellular calcium (FLIPR), M3-CHO cells. The following applies: for Emax: 100% efficacy = maximum response obtained with the Carbachol control; for M3 Activity: M3-CHO cells, calcium mobilization (FLIPR). On the procedure: Functional Mobilization of Intracellular Calcium to Determine Muscarinic Receptor Activity:
CHO cells expressing muscarinic receptors (M1 to M5) are grown as monolayers in tissue culture flasks at 37° C. in a humidified atmosphere containing 5% CO2 and passaged every 3-5 days. The growth media is Dulbecco's modified eagles medium (DMEM, Gibco Cat #12430-054), containing 25 mM Hepes and supplemented with Fetal Bovine Serum (Hyclone, cat #SH30071.03), 0.1 mM of MEM non-essential amino acids (GIBCO, Cat #11140-050), 1 mM MEM Sodium Pyruvate (GIBCO Cat #11360-070) and 100 units/ml of Penicillin G and 100 μg/ml of Streptomycin (GIBCO Cat #15140-122). The recombinant muscarinic receptor cell lines are grown under antibiotic pressure with media containing 25 μg/ml zeocin and 500 μg/ml G418 (M1-CHO), 4 μg/ml puromycin, 50 μg/ml zeocin and 2.5 μg/ml blasticidin (M2 and M4-CHO) or 50 μg/ml zeocin and 4 μg/ml puromycin (M3 and M5-CHO).
Cells are harvested at 80-90% confluence using Versene (GIBCO Cat #15040-066), collected by centrifugation and seeded 18-24 hrs prior to running the calcium assay at a density of 5,000-10,000 cells/well in […], clear-bottomed 384-well plates (BD Biocoat, poly-D-lysine, Cat #356663). The day of the experiment, the cells are washed with a plate washer (Bioteck Instruments, ELX 405) using bath 1 buffer (140-mM NaCl, 4.5-mM KCl, 2-mM CaCl2, 1-mM MgCl2, 10-mM Hepes-Na, 10-mM Glucose, pH 7.4, with NaOH) containing 1 mM Probenecid. Next, the calcium dye Fluo-3 (25 μl/well of Fluo-3 AM at 4 μM, Molecular Probes F-1241, in Bath 1 buffer containing 1 mM Probenecid) is added to the 25 μl of Bath 1 remaining in each well after the plate wash and the dye is loaded at 37° C. in the tissue culture incubator for 60-90 min. The fluorescent dye is removed using the plate washer with Bath 1 containing 1 mM Probenecid, leaving 25 μl/well of this solution after the wash. Alternatively, cells can be loaded with the calcium indicator from Molecular Devices (Calcium 3 Assay Reagents, Cat #R7181) adding 5 μl of a 5× solution dye in Bath 1 containing 1 mM Probenecid (10 ml per dye flask cat #R7182 to generate a solution 20×) to 20 μl of the same buffer. After loading for 60 min, the experiment can be run without having to remove the dye.
Compounds are prepared at a 2× fold concentration in a 96-well plate (round bottom, Costar Corning cat #3656), by reconstituting the pre-spotted compounds in bath 1 containing 1 mM probenecid. The final concentration DMSO is 0.5%, and the amount of DMSO is normalized across the assay plate. To determine an agonist action of the compounds on muscarinic receptors, the reconstituted compounds are added (25 μl compound/well) to the cell assay plate (containing 25 μl/well) using the multi-channel robotic system of the FLIPR 3 Instrument (Molecular Devices, Sunnyvale, Calif.). To determine a functional inhibitory action of the compounds on muscarinic receptors, the reconstituted compounds are added (25 μl compound/well) to the assay plate and pre-incubated for 15 min prior to adding 25 μl of Carbachol at 3× the EC80 for each muscarinic subtype. Alternatively, the compounds can be co-applied simultaneously with the agonist. In both assay modes, the fluorescence is recorded for 60 sec (excitation wavelength is […] and emission wavelength 540 nm) using the FLIPR 3 instrument.
The potency, efficacy and selectivity of the muscarinic compounds were evaluated by screening the compound activity across the whole family (M1 to M5 cells). Compounds were also screened for activity on other proteins such as other GPCRs and ion channels to determine selectivity on M4 receptors.
Examples of activities and efficacies of the muscarinic compounds of formulae (I, Ia, Ib, and II) on modulating M1, M2, M3 and M4 receptors are shown below in Table 3. […]

The target in the next experiment is T4, M4 muscarinic receptor (Homo sapiens, UniProt P08173).
T4 construct: expressed in transfected cells; host or cells: CHO (M4-CHO)
T4 sequence (P08173 1-479): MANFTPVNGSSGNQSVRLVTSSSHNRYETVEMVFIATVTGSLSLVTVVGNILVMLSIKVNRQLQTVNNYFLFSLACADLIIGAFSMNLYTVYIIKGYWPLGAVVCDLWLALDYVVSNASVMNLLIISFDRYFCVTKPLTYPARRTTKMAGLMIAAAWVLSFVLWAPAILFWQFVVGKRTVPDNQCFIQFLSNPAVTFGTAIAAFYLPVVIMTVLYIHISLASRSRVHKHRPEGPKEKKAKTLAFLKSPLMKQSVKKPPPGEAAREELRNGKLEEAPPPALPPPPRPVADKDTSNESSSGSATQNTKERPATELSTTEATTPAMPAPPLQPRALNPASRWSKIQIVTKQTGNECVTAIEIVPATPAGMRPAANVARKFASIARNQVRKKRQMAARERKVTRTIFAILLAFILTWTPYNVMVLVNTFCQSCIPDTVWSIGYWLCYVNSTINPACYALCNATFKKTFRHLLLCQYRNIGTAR
As to the kind of experiment: Functional mobilization of intracellular calcium (FLIPR), M4-CHO cells. Particulars: for Emax: 100% efficacy = maximum response obtained with the Carbachol control; for M4 Activity: M4-CHO cells, calcium mobilization (FLIPR). In short, it runs like this:
as §1

T3 sequence (P20309 whole entry): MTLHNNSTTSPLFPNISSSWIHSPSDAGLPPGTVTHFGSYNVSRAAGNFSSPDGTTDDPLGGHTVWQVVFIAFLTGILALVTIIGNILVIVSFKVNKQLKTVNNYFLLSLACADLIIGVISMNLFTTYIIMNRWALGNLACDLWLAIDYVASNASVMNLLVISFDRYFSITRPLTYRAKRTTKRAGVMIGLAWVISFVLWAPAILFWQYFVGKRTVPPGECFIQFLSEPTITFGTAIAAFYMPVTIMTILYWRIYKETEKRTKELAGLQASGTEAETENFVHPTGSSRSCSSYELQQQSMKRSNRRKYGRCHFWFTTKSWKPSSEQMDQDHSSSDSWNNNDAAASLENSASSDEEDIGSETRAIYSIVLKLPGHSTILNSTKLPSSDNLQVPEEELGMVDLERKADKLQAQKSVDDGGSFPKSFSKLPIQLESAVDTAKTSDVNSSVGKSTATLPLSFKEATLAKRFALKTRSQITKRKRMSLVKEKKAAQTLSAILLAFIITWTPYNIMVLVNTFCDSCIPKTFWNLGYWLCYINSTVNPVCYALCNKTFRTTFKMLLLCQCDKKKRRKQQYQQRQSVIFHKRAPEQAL

Broadly, the Emax is the size of the effect at its maximum, as opposed to the concentration needed. `COc1ccccc1C1CCN(CC2CCCOC2)CC1` (centres unmarked) [Compound 2]: on M1 muscarinic receptor, the Emax lay within 25 to 100% and the “M1 Activity” value is given as “+ (activity was measured to be greater than 5.0 μM)”. Also, at M2 muscarinic receptor, the Emax was < 25% and the “M2 Activity” value is recorded as “+ (activity was measured to be greater than 5.0 μM)”. In addition, at M3 muscarinic receptor, the Emax was < 25% and the “M3 Activity” value is “+ (activity was measured to be greater than 5.0 μM)”. In addition, on M4 muscarinic receptor, the Emax is 25 to 100% and the “M4 Activity” value is listed as “++ (activity was measured to be from 1.0 μM to 5.0 μM)”.

As for `COc1ccc(C(=O)C2CC2)cc1C1CCN([C@H]2C[C@H]3CC[C@H]2C3)CC1` [Compound 3], on M1 muscarinic receptor, the maximal response (Emax) is < 25% and the “M1 Activity” value was “+ (activity was measured to be greater than 5.0 μM)”. For the same compound, on M2 muscarinic receptor, the Emax is < 25% and the “M2 Activity” value is “+ (activity was measured to be greater than 5.0 μM)”. Also, on M3 muscarinic receptor, the Emax is < 25% and the “M3 Activity” value was “+ (activity was measured to be greater than 5.0 μM)”. At M4 muscarinic receptor, the Emax was < 25% and the “M4 Activity” value is “+ (activity was measured to be greater than 5.0 μM)”.

On to `COc1cc(F)ccc1C1CCN([C@H]2C[C@H]3CC[C@H]2C3)CC1` [Compound 4], for which, on M1 muscarinic receptor, the Emax lay in the range of 25 to 100% and the “M1 Activity” value is “+ (activity was measured to be greater than 5.0 μM)”. Besides, on M2 muscarinic receptor, the Emax was < 25% and the “M2 Activity” value is recorded as “+ (activity was measured to be greater than 5.0 μM)”. For the same compound, on M3 muscarinic receptor, the Emax is < 25% and the “M3 Activity” value was “+ (activity was measured to be greater than 5.0 μM)”. For the same compound, on M4 muscarinic receptor, the Emax is 25 to 100% and the “M4 Activity” value is reported as “+++ (activity was measured to be less than 1.0 μM)”.

`COc1ccc(F)cc1C1(F)CCN(C[C@@H]2C[C@H]3C=C[C@H]2C3)CC1` [Compound 5]: at M1 muscarinic receptor, the Emax fell in the range of 25 to 100% and the “M1 Activity” value is listed as “+ (activity was measured to be greater than 5.0 μM)”. In addition, on M2 muscarinic receptor, the Emax was 25 to 100% and the “M2 Activity” value is on record as “+ (activity was measured to be greater than 5.0 μM)”. Further, at M3 muscarinic receptor, the Emax was < 25% and the “M3 Activity” value is given as “+ (activity was measured to be greater than 5.0 μM)”. On M4 muscarinic receptor, the Emax lay within 25 to 100% and the “M4 Activity” value was “+++ (activity was measured to be less than 1.0 μM)”.

As to `COc1ccc(-c2ccc(C(N)=O)cc2)cc1C1CCN([C@H]2C[C@H]3CC[C@H]2C3)CC1` [Compound 6], at M1 muscarinic receptor, the Emax was < 25% and the “M1 Activity” value is “+ (activity was measured to be greater than 5.0 μM)”. On M2 muscarinic receptor, the Emax was < 25% and the “M2 Activity” value is given as “+ (activity was measured to be greater than 5.0 μM)”. Also, at M3 muscarinic receptor, the Emax was < 25% and the “M3 Activity” value is recorded as “+ (activity was measured to be greater than 5.0 μM)”. At M4 muscarinic receptor, the Emax is < 25% and the “M4 Activity” value was “+ (activity was measured to be greater than 5.0 μM)”.

`COc1ccc(-c2ccc(C(C)=O)cc2)cc1C1CCN([C@H]2C[C@H]3CC[C@H]2C3)CC1` [Compound 7]: at M1 muscarinic receptor, the Emax is < 25% and the “M1 Activity” value is listed as “+ (activity was measured to be greater than 5.0 μM)”. Further, on M2 muscarinic receptor, the Emax was < 25% and the “M2 Activity” value was “+ (activity was measured to be greater than 5.0 μM)”. Besides, at M3 muscarinic receptor, the Emax was < 25% and the “M3 Activity” value is “+ (activity was measured to be greater than 5.0 μM)”. Also, at M4 muscarinic receptor, the maximal response (Emax) lay in the range of 25 to 100% and the “M4 Activity” value is given as “++ (activity was measured to be from 1.0 μM to 5.0 μM)”.

Consider `COc1ccc(-c2ccc(C(=O)N3CCOCC3)cc2)cc1C1CCN([C@H]2C[C@H]3CC[C@H]2C3)CC1` [Compound 8], for which, at M1 muscarinic receptor, the Emax is < 25% and the “M1 Activity” value was “+ (activity was measured to be greater than 5.0 μM)”. Moreover, at M2 muscarinic receptor, the Emax was < 25% and the “M2 Activity” value is given as “+ (activity was measured to be greater than 5.0 μM)”. Also, on M3 muscarinic receptor, the Emax is < 25% and the “M3 Activity” value is recorded as “+ (activity was measured to be greater than 5.0 μM)”. Besides, at M4 muscarinic receptor, the Emax was < 25% and the “M4 Activity” value is given as “+ (activity was measured to be greater than 5.0 μM)”.

The record behind these values is patent publication US7880007B2, “Bicyclic substituted phenyl piperidine modulators of muscarinic receptors” (Vertex Pharmaceuticals Incorporated, priority 2004, dated 2011).
